Organism: Rattus norvegicus
Assay: Open TG-GATES - Regimen: Single
Type: toxicity, organism-based, Sprague-Dawley
Parameters: regimen Single, gender Male, age 6 weeks
Conditions: in vivo, po, 0 mg/kg, route gavage, dose level Control; for APTT / Bas / Eos / Fbg / Hb / Ht / MCH / MCHC / MCV / Mono / PT / Plat / RBC / Ret / WBC: tissue Blood; for ALP / ALT / CRE / DBIL / GLC / IP / K / LDH / Na / PL / RALB / TBIL / TC / TG / TP / gamma-GTP: tissue Plasma

## CCN(CC)C(=S)SSC(=S)N(CC)CC
3 h
  TERMINAL_BW: 212.4 g
  APTT: 21.9 s
  Bas: 0%
  Eos: 0.6%
  Fbg: 285.8 mg/dL
  Hb: 13.2 g/dL
  Ht: 40.8%
  MCH: 20.6 pg
  MCHC: 32.3%
  MCV: 63.8 fL
  Mono: 2.6%
  PT: 16.5 s
  Plat: 98.3 x10_4/uL
  RBC: 639.2 x10_4/ul
  Ret: 7.6%
  WBC: 97.5 x10_2/uL
  ALP: 1602.8 IU/L
  ALT: 48 IU/L
  CRE: 0.2 mg/dL
  DBIL: 0 mg/dL
  GLC: 188.6 mg/dL
  IP: 7.8 mg/dL
  K: 4.2 meq/L
  LDH: 236.6 IU/L
  Na: 141.4 meq/L
  PL: 138 mg/dL
  RALB: 3 g/dL
  TBIL: 0.006 mg/dL
  TC: 73.6 mg/dL
  TG: 72.4 mg/dL
  TP: 5.5 g/dL
  gamma-GTP: 1 IU/L
6 h
  TERMINAL_BW: 208.9 g
  APTT: 21.8 s
  Bas: 0%
  Eos: 0.8%
  Fbg: 286.4 mg/dL
  Hb: 12.8 g/dL
  Ht: 39.4%
  MCH: 20.1 pg
  MCHC: 32.4%
  MCV: 62 fL
  Mono: 2%
  PT: 16.6 s
  Plat: 119.2 x10_4/uL
  RBC: 635.6 x10_4/ul
  Ret: 7.1%
  WBC: 102.5 x10_2/uL
  ALP: 1209.4 IU/L
  ALT: 38.8 IU/L
  CRE: 0.1 mg/dL
  DBIL: 0 mg/dL
  GLC: 184 mg/dL
  IP: 9.5 mg/dL
  K: 4.4 meq/L
  LDH: 188 IU/L
  Na: 141 meq/L
  PL: 124.6 mg/dL
  RALB: 3 g/dL
  TBIL: 0.004 mg/dL
  TC: 71.8 mg/dL
  TG: 56.8 mg/dL
  TP: 5.3 g/dL
  gamma-GTP: 1 IU/L
9 h
  TERMINAL_BW: 212.5 g
  APTT: 23.3 s
  Bas: 0%
  Eos: 0.8%
  Fbg: 297.2 mg/dL
  Hb: 12.9 g/dL
  Ht: 39.9%
  MCH: 20.2 pg
  MCHC: 32.3%
  MCV: 62.6 fL
  Mono: 2.6%
  PT: 16.4 s
  Plat: 107.7 x10_4/uL
  RBC: 638.6 x10_4/ul
  Ret: 7.1%
  WBC: 111.4 x10_2/uL
  ALP: 1326.8 IU/L
  ALT: 33.6 IU/L
  CRE: 0.2 mg/dL
  DBIL: 0.002 mg/dL
  GLC: 198.8 mg/dL
  IP: 10 mg/dL
  K: 4.1 meq/L
  LDH: 130 IU/L
  Na: 140.8 meq/L
  PL: 132.4 mg/dL
  RALB: 3.1 g/dL
  TBIL: 0.008 mg/dL
  TC: 72.6 mg/dL
  TG: 82.4 mg/dL
  TP: 5.4 g/dL
  gamma-GTP: 1 IU/L
24 h
  TERMINAL_BW: 229.8 g
  APTT: 20.8 s
  Bas: 0%
  Eos: 1%
  Fbg: 278.6 mg/dL
  Hb: 12.5 g/dL
  Ht: 38.4%
  MCH: 20.4 pg
  MCHC: 32.6%
  MCV: 62.5 fL
  Mono: 2.6%
  PT: 16.4 s
  Plat: 106.2 x10_4/uL
  RBC: 613.8 x10_4/ul
  Ret: 7.5%
  WBC: 83.8 x10_2/uL
  ALP: 1487.8 IU/L
  ALT: 40.4 IU/L
  CRE: 0.1 mg/dL
  DBIL: 0 mg/dL
  GLC: 193.4 mg/dL
  IP: 7.8 mg/dL
  K: 4.2 meq/L
  LDH: 167.6 IU/L
  Na: 141.2 meq/L
  RALB: 3 g/dL
  TBIL: 0.01 mg/dL
  TC: 78.4 mg/dL
  TG: 81.6 mg/dL
  TP: 5.5 g/dL
  gamma-GTP: 1.8 IU/L
